Reference: ChEMBL document CHEMBL1201862, “PubChem BioAssay data set” (2004)
Active and inactive are the calls of the source.

What was measured:
SUMO-activating enzyme [1] = target: T1, SUMO-activating enzyme (Homo sapiens, UniProt Q9UBT2); assay: blockers of UBC9-mediated SUMO conjugation – biochemical, AlphaScreen, SUMOylation inhibitor project, confirmation (AID 2018); assay type: functional
SUMO-activating enzyme [2] = target: T1, SUMO-activating enzyme; assay: blockers of SAE1/SAE2–UBC9 SUMO transfer – biochemical, HTRF, uHTS, primary screen (AID 2006); assay type: protein-complex assay
SUMO E1/E2 = SUMO E1/E2 (Homo sapiens, UniProt P63279+Q9UBE0+Q9UBT2); assay: SAR analysis of SUMOylation using HTRF in an in-Vitro dose response assay. [Related pubchem assays (depositor defined):AID2006, AID2011, AID2018, AID2069, AID2658]; assay type: functional
Sequence of SUMO E1/E2 (Q9UBE0 whole entry): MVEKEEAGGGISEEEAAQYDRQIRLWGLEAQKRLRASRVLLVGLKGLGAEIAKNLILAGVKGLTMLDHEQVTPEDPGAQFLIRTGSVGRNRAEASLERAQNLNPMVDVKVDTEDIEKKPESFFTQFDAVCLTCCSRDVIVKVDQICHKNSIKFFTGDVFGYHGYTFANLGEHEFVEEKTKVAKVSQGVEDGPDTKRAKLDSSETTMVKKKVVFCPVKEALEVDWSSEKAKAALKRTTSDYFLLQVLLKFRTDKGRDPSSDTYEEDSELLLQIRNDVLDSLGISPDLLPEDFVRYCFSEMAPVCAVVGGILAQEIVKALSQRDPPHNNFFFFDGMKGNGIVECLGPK
Sequence of SUMO E1/E2 (Q9UBT2 whole entry): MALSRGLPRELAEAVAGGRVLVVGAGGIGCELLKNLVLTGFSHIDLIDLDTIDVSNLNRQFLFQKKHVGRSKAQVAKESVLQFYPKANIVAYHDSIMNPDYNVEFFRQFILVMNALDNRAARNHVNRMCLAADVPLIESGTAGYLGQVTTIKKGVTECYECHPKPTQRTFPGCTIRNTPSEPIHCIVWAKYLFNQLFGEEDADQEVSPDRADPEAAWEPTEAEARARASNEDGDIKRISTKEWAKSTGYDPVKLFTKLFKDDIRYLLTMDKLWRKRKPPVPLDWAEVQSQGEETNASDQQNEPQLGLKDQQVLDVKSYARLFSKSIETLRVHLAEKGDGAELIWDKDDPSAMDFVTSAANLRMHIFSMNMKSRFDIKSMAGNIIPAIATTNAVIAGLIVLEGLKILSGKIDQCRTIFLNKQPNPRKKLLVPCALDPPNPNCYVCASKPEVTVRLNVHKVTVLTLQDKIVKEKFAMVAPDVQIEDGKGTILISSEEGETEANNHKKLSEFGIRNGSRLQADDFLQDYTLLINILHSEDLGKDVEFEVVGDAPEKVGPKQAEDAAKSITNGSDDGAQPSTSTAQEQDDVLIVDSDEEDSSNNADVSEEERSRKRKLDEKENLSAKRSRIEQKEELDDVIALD
Sequence of SUMO E1/E2 (P63279 whole entry): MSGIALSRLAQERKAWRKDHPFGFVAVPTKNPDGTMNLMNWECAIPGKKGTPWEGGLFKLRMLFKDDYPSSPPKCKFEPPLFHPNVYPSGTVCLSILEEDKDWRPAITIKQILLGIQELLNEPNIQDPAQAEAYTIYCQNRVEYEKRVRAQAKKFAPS

Vero = assay: viability of Vero cells under compound – cytotoxicity control for flavivirus capping enzyme inhibitors (AID 588742); assay type: functional; settings: Chlorocebus sabaeus
Protein RecA = target: T2, Protein RecA (Mycobacterium tuberculosis, UniProt P9WHJ3); assay: Fluorescence Cell-Free Homogeneous Dose Retest to Identify Inhibitors of RecA-Intein Splicing Activity. [Related pubchem assays (depositor defined):AID2097, AID2223, AID489010, AID492950]; assay type: functional
T2 sequence (P9WHJ3 whole entry): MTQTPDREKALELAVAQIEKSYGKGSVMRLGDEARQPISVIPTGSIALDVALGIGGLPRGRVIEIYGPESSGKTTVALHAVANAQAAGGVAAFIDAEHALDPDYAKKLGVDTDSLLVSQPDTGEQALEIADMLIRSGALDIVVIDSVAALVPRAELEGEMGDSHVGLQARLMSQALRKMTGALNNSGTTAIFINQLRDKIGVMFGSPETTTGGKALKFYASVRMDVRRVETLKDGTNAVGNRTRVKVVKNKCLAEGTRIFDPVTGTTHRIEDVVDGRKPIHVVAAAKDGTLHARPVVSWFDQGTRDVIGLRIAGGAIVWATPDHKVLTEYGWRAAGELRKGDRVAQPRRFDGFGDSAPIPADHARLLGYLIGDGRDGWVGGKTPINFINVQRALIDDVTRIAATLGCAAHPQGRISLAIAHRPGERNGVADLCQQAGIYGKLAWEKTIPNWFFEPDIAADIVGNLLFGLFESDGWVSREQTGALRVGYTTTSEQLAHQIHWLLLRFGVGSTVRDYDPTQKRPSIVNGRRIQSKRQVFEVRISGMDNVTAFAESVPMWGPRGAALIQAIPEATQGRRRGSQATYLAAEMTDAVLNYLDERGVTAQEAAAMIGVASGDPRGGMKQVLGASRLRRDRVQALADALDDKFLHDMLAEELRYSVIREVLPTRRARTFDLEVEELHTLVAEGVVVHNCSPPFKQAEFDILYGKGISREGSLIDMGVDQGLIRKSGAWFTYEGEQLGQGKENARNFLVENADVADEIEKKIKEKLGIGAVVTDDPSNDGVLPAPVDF

Genome polyprotein = Genome polyprotein (dengue virus type 2, UniProt P29990); assay: flavivirus cap methylation enzyme inhibition – biochemical, confirmation dose response, primary screen (AID 588689); assay type: functional
[3] = target: T3, Histone-lysine N-methyltransferase NSD2 (Homo sapiens, UniProt O96028); assay type: biochemical
T3 sequence (O96028 whole entry): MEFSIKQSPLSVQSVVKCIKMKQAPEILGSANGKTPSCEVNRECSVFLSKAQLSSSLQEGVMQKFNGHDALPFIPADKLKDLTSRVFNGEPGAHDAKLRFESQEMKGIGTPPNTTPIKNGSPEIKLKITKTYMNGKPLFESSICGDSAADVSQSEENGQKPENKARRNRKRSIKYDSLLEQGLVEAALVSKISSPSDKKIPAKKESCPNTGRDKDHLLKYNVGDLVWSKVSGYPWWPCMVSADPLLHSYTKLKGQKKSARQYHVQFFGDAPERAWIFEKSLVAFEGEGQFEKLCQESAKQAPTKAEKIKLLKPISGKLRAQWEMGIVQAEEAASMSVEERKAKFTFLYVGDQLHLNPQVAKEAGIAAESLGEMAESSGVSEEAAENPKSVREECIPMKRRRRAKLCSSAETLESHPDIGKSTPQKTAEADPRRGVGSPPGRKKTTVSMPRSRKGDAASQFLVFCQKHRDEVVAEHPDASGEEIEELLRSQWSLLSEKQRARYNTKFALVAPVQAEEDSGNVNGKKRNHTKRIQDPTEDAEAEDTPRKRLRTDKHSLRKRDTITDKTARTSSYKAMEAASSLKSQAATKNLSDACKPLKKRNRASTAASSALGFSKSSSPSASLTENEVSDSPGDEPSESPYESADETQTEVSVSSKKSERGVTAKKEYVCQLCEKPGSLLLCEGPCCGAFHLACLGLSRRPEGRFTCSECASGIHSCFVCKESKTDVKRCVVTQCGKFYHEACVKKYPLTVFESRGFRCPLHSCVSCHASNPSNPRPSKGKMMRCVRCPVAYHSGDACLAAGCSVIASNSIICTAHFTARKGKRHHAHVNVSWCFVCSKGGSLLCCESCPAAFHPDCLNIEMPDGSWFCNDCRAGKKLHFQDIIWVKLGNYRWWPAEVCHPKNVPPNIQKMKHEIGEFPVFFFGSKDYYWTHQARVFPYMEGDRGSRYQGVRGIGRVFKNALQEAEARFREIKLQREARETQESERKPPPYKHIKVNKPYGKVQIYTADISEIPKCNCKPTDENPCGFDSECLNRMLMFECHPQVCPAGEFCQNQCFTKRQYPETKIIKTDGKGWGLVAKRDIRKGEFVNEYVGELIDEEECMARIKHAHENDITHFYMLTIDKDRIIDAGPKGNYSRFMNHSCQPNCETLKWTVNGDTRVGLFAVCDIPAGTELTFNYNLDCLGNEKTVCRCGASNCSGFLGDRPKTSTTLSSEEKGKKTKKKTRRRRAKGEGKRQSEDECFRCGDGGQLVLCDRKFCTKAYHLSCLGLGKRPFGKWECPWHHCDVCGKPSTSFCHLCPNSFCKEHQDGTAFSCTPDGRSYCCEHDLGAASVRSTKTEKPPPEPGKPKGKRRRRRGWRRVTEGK

[4] = target: Glucose-6-phosphate 1-dehydrogenase (Homo sapiens, UniProt P11413); assay: inhibition of Homo sapiens G6PD, dose series – biochemical, fluorescence, selectivity assay for P. falciparum G6PD inhibitor project, dose response (AID 504792); assay type: functional
Sequence of Glucose-6-phosphate 1-dehydrogenase (P11413 whole entry): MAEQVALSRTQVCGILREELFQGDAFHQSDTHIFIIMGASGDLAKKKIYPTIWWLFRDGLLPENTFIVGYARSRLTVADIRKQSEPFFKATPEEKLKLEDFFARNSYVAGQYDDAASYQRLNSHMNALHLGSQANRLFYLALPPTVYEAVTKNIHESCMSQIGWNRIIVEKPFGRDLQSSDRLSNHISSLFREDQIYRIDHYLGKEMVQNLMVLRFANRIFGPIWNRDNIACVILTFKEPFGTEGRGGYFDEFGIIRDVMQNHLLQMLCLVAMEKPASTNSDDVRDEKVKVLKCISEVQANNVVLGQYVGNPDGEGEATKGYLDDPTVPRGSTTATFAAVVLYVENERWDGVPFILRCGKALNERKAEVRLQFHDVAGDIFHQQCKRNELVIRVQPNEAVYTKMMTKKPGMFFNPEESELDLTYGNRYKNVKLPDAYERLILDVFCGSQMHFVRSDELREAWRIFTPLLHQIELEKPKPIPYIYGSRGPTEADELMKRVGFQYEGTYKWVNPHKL

Nonstructural protein 1 = Nonstructural protein 1 (Influenza A virus, UniProt Q194T2); assay type: functional, Influenza A virus (A/California/07/2009(H1N1))
Sequence of Nonstructural protein 1 (Q194T2 whole entry): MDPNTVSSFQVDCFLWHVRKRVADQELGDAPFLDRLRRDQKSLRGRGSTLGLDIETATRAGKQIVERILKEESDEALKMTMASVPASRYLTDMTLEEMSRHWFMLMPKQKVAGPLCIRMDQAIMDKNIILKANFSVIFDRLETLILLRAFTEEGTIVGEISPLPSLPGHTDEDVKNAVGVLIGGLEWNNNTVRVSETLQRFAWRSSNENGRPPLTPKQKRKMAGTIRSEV

[5] = target: T4, Polyadenylate-binding protein 1 (Homo sapiens, UniProt P11940); assay: MLLE binding blockers, Cy5 peptide tracer – biochemical, fluorescence polarization, Cy5-PAM2 peptide, secondary, miRNA deadenylation inhibitor project, dose response (AID 602260); assay type: functional; settings: read-out: IC50_Mean
T4 sequence (P11940 whole entry, the tested form may be a part): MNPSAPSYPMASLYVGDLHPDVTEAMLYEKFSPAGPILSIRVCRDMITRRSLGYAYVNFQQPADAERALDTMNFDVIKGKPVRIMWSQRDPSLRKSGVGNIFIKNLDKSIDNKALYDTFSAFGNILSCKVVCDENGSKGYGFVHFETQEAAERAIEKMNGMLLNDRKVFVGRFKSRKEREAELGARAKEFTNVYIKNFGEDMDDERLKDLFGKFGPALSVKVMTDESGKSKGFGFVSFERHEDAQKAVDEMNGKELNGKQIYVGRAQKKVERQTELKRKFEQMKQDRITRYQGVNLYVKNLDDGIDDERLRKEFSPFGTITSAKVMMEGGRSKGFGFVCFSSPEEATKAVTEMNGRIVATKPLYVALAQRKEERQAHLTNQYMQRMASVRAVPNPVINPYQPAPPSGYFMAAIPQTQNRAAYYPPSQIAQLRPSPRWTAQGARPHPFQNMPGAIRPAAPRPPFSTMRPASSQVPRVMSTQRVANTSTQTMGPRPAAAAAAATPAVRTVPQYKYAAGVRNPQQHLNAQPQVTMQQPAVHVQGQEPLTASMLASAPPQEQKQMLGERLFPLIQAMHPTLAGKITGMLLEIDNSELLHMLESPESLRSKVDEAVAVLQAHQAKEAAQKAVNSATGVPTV

[6] = target: T4, Polyadenylate-binding protein 1; assay: MLLE domain peptide-binding blockers, IC50 – biochemical, fluorescence polarization, FITC-PAM2 peptide, dose response (AID 602259); assay type: functional; settings: read-out: IC50_Mean
[7] = target: T5, Sentrin-specific protease 8 (Homo sapiens, UniProt Q96LD8); assay type: functional
T5 sequence (Q96LD8 whole entry): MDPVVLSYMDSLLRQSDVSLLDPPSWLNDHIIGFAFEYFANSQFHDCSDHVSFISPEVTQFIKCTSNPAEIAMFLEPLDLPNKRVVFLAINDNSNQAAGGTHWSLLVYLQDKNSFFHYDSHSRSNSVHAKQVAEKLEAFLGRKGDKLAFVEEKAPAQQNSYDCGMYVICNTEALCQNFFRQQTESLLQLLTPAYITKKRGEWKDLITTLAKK

[8] = target: T5, Sentrin-specific protease 8; assay type: functional; remark: listed apart in the source
Phospholipase D1 = Phospholipase D1 (Homo sapiens, UniProt Q13393); assay: cellular phospholipase D1 inhibition IC50 – cell-based, dose response (AID 602151); assay type: functional;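 note: cellular PLD1 assay in Calu-1 cells stimulated with PMA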
Sequence of Phospholipase D1 (Q13393 whole entry): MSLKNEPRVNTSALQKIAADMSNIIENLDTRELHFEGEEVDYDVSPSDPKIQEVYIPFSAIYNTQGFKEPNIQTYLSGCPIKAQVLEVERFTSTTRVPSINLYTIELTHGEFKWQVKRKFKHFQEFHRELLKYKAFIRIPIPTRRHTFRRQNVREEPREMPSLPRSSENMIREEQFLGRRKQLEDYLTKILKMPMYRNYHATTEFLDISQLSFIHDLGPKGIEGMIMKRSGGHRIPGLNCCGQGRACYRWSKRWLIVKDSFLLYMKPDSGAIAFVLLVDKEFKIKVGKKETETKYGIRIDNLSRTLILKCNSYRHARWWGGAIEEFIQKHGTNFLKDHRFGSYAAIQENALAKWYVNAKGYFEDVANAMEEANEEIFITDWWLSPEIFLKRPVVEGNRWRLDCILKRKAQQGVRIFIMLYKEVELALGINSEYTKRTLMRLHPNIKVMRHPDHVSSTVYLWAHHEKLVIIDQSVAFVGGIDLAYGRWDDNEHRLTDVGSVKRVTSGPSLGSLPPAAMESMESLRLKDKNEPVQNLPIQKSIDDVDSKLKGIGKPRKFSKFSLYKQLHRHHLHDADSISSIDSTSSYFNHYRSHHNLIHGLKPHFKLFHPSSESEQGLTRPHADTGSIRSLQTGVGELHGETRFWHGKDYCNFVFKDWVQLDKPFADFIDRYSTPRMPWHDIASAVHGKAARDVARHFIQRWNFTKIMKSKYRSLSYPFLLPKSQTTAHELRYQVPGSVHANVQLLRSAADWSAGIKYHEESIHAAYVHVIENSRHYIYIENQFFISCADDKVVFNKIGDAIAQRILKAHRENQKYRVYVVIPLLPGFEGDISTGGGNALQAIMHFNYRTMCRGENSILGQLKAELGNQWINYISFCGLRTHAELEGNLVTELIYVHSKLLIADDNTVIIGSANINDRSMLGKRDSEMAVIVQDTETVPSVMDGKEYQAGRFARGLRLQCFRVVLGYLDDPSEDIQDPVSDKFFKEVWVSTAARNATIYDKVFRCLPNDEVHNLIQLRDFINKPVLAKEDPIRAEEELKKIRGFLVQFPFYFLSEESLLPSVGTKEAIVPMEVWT

Phospholipase D2 = Phospholipase D2 (Homo sapiens, UniProt O14939); assay: cellular phospholipase D2 inhibition IC50 – cell-based, dose response (AID 602147); assay type: functional;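 note: cellular assay in HEK293 cells overexpressing GFP-tagged PLD2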
Sequence of Phospholipase D2 (O14939 whole entry): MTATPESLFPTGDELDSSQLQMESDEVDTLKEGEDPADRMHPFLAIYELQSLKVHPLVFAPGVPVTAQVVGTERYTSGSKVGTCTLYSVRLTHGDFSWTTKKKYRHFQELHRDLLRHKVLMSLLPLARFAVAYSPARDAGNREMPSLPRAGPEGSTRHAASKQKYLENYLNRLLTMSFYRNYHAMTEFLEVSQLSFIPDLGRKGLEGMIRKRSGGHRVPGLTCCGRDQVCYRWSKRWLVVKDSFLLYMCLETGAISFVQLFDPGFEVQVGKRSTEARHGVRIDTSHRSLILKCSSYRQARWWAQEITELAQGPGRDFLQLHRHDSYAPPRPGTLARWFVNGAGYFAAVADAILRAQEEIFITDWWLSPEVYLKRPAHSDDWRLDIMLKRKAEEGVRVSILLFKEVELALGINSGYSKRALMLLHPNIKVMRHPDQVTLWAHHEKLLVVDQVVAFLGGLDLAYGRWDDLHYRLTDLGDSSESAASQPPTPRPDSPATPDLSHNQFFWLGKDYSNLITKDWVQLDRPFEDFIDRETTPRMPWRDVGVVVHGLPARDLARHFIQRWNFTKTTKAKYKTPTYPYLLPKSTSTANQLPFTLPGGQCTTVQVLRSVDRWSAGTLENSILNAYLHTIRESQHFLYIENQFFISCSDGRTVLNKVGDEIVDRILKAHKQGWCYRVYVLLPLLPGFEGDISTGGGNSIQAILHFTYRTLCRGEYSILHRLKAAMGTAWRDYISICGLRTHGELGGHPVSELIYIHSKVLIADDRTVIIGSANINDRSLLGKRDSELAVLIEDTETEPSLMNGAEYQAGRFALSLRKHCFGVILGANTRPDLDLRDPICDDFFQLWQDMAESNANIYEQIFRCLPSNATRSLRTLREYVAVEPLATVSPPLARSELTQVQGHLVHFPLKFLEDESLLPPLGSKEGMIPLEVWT

T1 sequence (Q9UBE0 whole entry): as the sequence (Q9UBE0 whole entry) above
T1 sequence (Q9UBT2 whole entry): as the sequence (Q9UBT2 whole entry) above

CCCCn1c(NC(=O)c2ccc(Br)o2)c(S(=O)(=O)c2ccccc2)c2nc3ccccc3nc21
IC50 (SUMO-activating enzyme [1]): 2.8 µM (active)
IC50 (SUMO-activating enzyme [2]): 10.6 µM (active)
IC50 (SUMO E1/E2): 20.3 µM (active)
CC50 (Vero): > 40 µM (active)
EC50 (Protein RecA): 108 µM (inconclusive)
IC50 (Genome polyprotein): 75.4 µM (active)
AC50 [3]: 7.79 µM (active)

Cc1cnc(C=NNC(N)=S)c2cccc(N)c12
IC50 [4]: 32.1 µM (inactive)
IC50 (Nonstructural protein 1): 2.39 µM (active)
CC50 (Vero): 4.93 µM (active)
IC50 [5]: > 66 µM (inactive)
IC50 [6]: > 66 µM (inactive)
IC50 [7]: 8.74 µM (active)
IC50 [8]: 2.83 µM (active)

O=C(NCCN1CCC2(CC1)C(=O)NCN2c1ccccc1)c1cc2cc(F)ccc2[nH]1
IC50 (Phospholipase D1): 0.1 µM (active)
IC50 (Phospholipase D2): 0.07 µM (active)

C[C@@H](CN1CCC(n2c(=O)[nH]c3cc(Br)ccc32)CC1)NC(=O)c1ccc(F)cc1
IC50 (Phospholipase D1): 0.004 µM (active)
IC50 (Phospholipase D2): 0.34 µM (active)
